From EP4722207A1, “OXOISOINDOLINYL-SUBSTITUTED TETRAHYDROPYRIMIDINEDIONE DERIVATIVE AND USE THEREOF” (Gluetacs Therapeutics (Shanghai) Co., Ltd., priority 2023, dated 2024)

Legend:
Type in all cases: cell-based
Settings in all cases: compounds at 50 nM and 500 nM, 24 hours
CK1α = biological target: T1, CK1α (Homo sapiens, UniProt P48729+Q96SW2); assay: Western-blot assay, substrate protein degradation in hPBMCs: CK1α
T1 construct: effects of the compounds of the present disclosure on the expression of target proteins in cells; endogenous in cells; host or cells: human PBMCs (hPBMCs)
Method: (§1) Conventional Western blot assay was performed to evaluate the effects of the compounds of the present disclosure on the expression of target proteins in cells. • (1) Cell Seeding and Protein Harvesting: Human peripheral blood mononuclear cells (hPBMCs) at a density of 1x10^6 cells/mL were thawed according to the PBMC Recovery Protocol (Milecell Biotechnologies Inc, Shanghai). […] After 24 hours of compounds treatment, cells were harvested and lysed in RIPA protein lysate containing protease inhibitors on ice for 30 min, followed by centrifugation. The supernatant was aspirated as the extracted total cell protein. The protein concentration of the supernatant was determined using the conventional BCA (Bicinchoninic Acid) assay. • (2) To the collected supernatant, 5X SDS sample loading buffer was added, followed by denaturation at 95°C for 5 minutes. The denatured samples were then separated by SDS-PAGE electrophoresis on a polyacrylamide gel. Proteins were transferred to a nitrocellulose membrane (0.45 µm NC membrane), blocked with blocking buffer at room temperature for 1 hour, and subjected to antibody incubation and development procedures according to the antibody manufacturer's instructions (Cell Signaling Technology).
(§2) Half-Maximal Degradation Concentration value (the drug concentration required for degrading proteins by 50%, abbreviated as DC50) reads method: comparing the grayscale values of Western blot bands from drug-treated samples with those from blank DMSO-treated controls, and identifying the drug concentration range at which the grayscale value is half that of the DMSO-treated control bands.
(§3) DC50 values can be calculated using ImageJ software to measure grayscale values of Western blot bands from drug-treated samples. The concentration-response curve is fitted to estimate the drug concentration corresponding to half the grayscale value.
(§4) Target protein remaining (%) refers to the percentage of target protein remaining in cells after treatment with protein degrader compounds.
(§5) Calculation method for target protein remaining (%): Use ImageJ software to measure grayscale values of Western blot bands from drug (protein degrader)-treated samples. The grayscale value of drug-treated bands is divided by that of internal control protein bands, and the resulting quotient is normalized to obtain the relative percentage of remaining target protein after protein degrader treatment. Target protein degradation rate(%) = 1−target protein remaining(%). [formula]

IKZF3 = biological target: T2, IKZF3 (Homo sapiens, UniProt Q96SW2+Q9UKT9); assay: Western-blot assay, substrate protein degradation in hPBMCs: IKZF3
T2 construct: effects of the compounds of the present disclosure on the expression of target proteins in cells; endogenous in cells; host or cells: human PBMCs (hPBMCs)
Method: as §1, §2, §3, §4, §5

GSPT1 = biological target: T3, GSPT1 (Homo sapiens, UniProt P15170+Q96SW2); assay: Western-blot assay, substrate protein degradation in hPBMCs: GSPT1
T3 construct: effects of the compounds of the present disclosure on the expression of target proteins in cells; endogenous in cells; host or cells: human PBMCs (hPBMCs)
Method: as §1, §2, §3, §4, §5

IKZF1 = biological target: T4, IKZF1 (Homo sapiens, UniProt Q13422+Q96SW2); assay: Western-blot assay, substrate protein degradation in hPBMCs: IKZF1
T4 construct: effects of the compounds of the present disclosure on the expression of target proteins in cells; endogenous in cells; host or cells: human PBMCs (hPBMCs)
Method: as §1, §2, §3, §4, §5

IKZF2 = biological target: T5, IKZF2 (Homo sapiens, UniProt Q96SW2+Q9UKS7); assay: Western-blot assay, substrate protein degradation in hPBMCs: IKZF2
T5 construct: effects of the compounds of the present disclosure on the expression of target proteins in cells; endogenous in cells; host or cells: human PBMCs (hPBMCs)
Method: as §1, §2, §3, §4, §5

WEE1 = biological target: T6, WEE1 (Homo sapiens, UniProt P30291+Q96SW2); assay: Western-blot assay, substrate protein degradation in hPBMCs: WEE1
T6 construct: effects of the compounds of the present disclosure on the expression of target proteins in cells; endogenous in cells; host or cells: human PBMCs (hPBMCs)
Method: as §1, §2, §3, §4, §5

T1 sequence (P48729 whole entry): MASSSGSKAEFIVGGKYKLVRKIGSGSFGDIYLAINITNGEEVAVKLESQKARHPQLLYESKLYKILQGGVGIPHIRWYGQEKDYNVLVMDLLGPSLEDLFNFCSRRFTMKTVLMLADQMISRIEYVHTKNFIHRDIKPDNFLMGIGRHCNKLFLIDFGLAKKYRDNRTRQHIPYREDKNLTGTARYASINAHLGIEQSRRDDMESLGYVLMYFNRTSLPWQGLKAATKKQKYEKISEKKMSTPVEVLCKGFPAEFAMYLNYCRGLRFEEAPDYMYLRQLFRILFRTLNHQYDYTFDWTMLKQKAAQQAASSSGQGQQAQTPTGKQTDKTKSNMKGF
T1 sequence (Q96SW2 whole entry): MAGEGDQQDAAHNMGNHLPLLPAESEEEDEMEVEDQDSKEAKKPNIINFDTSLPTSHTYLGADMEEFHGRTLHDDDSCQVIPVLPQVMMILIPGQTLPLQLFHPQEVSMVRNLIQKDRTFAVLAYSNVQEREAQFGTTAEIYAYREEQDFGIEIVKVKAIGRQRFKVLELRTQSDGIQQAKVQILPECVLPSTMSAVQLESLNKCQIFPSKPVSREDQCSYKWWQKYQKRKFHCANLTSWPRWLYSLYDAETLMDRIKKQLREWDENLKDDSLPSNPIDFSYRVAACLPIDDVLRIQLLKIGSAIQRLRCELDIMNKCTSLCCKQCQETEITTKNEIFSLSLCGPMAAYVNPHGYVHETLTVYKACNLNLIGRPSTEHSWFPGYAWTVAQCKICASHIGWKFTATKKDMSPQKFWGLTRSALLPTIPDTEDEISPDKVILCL
T1 sequence (Q16531 whole entry partner): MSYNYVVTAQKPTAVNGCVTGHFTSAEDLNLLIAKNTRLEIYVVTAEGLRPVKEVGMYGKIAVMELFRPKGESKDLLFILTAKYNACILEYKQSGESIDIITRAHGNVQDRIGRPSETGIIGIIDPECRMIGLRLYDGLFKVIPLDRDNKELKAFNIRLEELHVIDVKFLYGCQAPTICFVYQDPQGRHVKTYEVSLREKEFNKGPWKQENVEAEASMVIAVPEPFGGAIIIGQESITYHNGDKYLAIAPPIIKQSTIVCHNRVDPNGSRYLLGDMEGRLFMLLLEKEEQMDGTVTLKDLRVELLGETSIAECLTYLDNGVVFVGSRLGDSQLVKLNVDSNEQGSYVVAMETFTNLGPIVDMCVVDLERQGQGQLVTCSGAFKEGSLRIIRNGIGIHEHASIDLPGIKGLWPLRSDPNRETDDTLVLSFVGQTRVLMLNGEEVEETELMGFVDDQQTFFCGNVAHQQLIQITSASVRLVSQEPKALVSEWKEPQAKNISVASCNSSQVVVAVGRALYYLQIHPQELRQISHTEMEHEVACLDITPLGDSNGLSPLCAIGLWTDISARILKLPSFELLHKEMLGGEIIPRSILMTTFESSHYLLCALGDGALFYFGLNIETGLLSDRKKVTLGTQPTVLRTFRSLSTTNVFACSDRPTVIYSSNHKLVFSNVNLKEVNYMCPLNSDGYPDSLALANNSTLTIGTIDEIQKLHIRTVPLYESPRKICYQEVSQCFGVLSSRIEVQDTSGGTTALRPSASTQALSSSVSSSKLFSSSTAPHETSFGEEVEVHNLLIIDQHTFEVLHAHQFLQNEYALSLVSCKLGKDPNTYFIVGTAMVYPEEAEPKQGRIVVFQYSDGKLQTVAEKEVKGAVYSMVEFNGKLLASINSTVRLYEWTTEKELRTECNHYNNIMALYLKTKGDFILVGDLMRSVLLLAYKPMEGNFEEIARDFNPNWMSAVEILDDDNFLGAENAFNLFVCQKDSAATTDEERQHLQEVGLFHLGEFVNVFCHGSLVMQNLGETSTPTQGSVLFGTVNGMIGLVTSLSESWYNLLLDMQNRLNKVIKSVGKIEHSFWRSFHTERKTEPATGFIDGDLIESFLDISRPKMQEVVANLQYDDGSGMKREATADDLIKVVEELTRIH
T6 sequence (P30291 whole entry): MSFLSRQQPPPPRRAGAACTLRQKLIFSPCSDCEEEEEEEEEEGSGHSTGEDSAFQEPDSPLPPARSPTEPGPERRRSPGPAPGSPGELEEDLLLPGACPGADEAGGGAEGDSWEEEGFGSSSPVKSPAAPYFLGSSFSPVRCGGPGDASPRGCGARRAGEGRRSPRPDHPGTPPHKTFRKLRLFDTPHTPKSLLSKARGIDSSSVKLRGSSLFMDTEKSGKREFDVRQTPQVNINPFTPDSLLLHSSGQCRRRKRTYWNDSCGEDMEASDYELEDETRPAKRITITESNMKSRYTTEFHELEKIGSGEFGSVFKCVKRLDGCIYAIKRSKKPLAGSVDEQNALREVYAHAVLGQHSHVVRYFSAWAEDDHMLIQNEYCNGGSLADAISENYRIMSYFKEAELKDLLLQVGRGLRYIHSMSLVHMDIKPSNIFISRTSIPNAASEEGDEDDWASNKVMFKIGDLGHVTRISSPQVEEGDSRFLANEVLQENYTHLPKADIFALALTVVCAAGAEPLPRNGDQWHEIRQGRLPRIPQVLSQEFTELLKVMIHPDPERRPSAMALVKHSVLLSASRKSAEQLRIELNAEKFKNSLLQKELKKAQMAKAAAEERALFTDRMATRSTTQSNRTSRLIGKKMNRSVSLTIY
T6 sequence (Q96SW2 whole entry): as the sequence (Q96SW2 whole entry) above
T6 sequence (Q16531 whole entry partner): as the sequence (Q16531 whole entry partner) above
T3 sequence (P15170 whole entry): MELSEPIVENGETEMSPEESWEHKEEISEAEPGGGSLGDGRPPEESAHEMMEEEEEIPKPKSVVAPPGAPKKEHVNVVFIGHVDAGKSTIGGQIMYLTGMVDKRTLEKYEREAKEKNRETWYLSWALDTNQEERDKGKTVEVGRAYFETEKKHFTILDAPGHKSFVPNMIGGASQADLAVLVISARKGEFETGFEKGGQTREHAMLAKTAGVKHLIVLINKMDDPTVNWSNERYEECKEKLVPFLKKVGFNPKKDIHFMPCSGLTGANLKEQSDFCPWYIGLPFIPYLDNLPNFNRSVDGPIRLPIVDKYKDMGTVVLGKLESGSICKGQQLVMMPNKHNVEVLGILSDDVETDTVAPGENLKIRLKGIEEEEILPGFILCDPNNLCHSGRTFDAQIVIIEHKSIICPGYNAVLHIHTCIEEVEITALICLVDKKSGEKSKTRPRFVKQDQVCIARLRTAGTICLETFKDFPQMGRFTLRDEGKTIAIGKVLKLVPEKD
T3 sequence (Q96SW2 whole entry): as the sequence (Q96SW2 whole entry) above
T3 sequence (Q16531 whole entry partner): as the sequence (Q16531 whole entry partner) above
T4 sequence (Q13422 whole entry): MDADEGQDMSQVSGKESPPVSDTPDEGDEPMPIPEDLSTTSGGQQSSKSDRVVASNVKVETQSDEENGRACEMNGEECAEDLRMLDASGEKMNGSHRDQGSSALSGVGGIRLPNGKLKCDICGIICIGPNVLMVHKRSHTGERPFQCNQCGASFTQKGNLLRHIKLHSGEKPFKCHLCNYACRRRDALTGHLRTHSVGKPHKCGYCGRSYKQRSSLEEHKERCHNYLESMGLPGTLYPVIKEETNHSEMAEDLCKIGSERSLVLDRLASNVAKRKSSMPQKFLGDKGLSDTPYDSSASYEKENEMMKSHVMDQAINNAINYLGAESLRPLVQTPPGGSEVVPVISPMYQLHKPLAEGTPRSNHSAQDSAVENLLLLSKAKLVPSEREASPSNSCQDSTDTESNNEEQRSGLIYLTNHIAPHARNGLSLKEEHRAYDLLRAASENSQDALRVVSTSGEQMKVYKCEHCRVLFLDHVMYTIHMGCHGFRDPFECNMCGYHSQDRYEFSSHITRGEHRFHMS
T4 sequence (Q96SW2 whole entry): as the sequence (Q96SW2 whole entry) above
T4 sequence (Q16531 whole entry partner): as the sequence (Q16531 whole entry partner) above
T2 sequence (Q9UKT9 whole entry): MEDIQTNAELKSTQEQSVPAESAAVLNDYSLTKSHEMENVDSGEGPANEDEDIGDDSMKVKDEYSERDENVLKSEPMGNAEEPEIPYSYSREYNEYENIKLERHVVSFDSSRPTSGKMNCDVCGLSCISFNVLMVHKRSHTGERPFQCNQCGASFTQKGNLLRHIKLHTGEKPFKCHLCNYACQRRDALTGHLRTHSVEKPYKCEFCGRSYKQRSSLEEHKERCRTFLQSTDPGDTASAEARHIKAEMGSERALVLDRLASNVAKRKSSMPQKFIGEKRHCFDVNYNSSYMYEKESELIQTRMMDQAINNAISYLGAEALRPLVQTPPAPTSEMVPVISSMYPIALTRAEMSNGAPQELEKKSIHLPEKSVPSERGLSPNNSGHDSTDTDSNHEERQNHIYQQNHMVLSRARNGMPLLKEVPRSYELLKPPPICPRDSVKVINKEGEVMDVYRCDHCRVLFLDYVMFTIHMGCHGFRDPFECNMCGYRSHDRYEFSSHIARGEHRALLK
T2 sequence (Q96SW2 whole entry): as the sequence (Q96SW2 whole entry) above
T2 sequence (Q16531 whole entry partner): as the sequence (Q16531 whole entry partner) above

| Compound | CK1α substrate protein remaining % (CK1α) | IKZF3 substrate protein remaining % (IKZF3) | GSPT1 substrate protein remaining % (GSPT1) | IKZF1 substrate protein remaining % (IKZF1) | IKZF2 substrate protein remaining % (IKZF2) | WEE1 substrate protein remaining % (WEE1) |
| --- | --- | --- | --- | --- | --- | --- |
| O=C1CCN(N2C(=O)c3ccc(CN4CCN(c5cccc(Cl)c5Cl)CC4)cc3C2=O)C(=O)N1 [GT-04854, 5-((4-(2,3-dichlorophenyl)piperazin-1-yl)methyl)-2-(2,4-dioxotetrahydropyrimidin-1(2H)-yl)isoindoline-1,3-dione] | B ("B" is defined as 80%< substrate protein remaining %≤ 100%) | B ("B" is defined as 80%< substrate protein remaining %≤ 100%) | A ("A" is defined as 0% ≤ substrate protein remaining % ≤ 80%) | A ("A" is defined as 0% ≤ substrate protein remaining % ≤ 80%) | A ("A" is defined as 0% ≤ substrate protein remaining % ≤ 80%) | A ("A" is defined as 0% ≤ substrate protein remaining % ≤ 80%) |
| O=C1CCN(N2Cc3cc(CN4CCC(c5noc6cc(F)ccc56)CC4)ccc3C2=O)C(=O)N1 [GT-04864, 1-(5-((4-(6-fluorobenzo[d]isoxazol-3-yl)piperidin-1-yl)methyl)-1-oxoisoindolin-2-yl)dihydropyrimidine-2,4(1H,3H)-dione] | B ("B" is defined as 80%< substrate protein remaining %≤ 100%) | B ("B" is defined as 80%< substrate protein remaining %≤ 100%) | A ("A" is defined as 0% ≤ substrate protein remaining % ≤ 80%) | A ("A" is defined as 0% ≤ substrate protein remaining % ≤ 80%) | B ("B" is defined as 80%< substrate protein remaining %≤ 100%) | B ("B" is defined as 80%< substrate protein remaining %≤ 100%) |
| O=C1CCN(N2Cc3cc(CN4CCN(c5ncccc5C(F)(F)F)CC4)ccc3C2=O)C(=O)N1 [GT-05174, 1-(1-oxo-5-((4-(3-(trifluoromethyl)pyridin-2-yl)piperazin-1-yl)methyl)isoindolin-2-yl)dihydropyrimidine-2,4(1H,3H)-dione] | B ("B" is defined as 80%< substrate protein remaining %≤ 100%) | B ("B" is defined as 80%< substrate protein remaining %≤ 100%) |  | B ("B" is defined as 80%< substrate protein remaining %≤ 100%) |  |  |
| O=C1CCN(N2Cc3cc(CN4CCN(c5cccc(C(F)(F)F)n5)CC4)ccc3C2=O)C(=O)N1 [GT-05175, 1-(1-oxo-5-((4-(6-(trifluoromethyl)pyridin-2-yl)piperazin-1-yl)methyl)isoindolin-2-yl)dihydropyrimidine-2,4(1H,3H)-dione] |  |  | A ("A" is defined as 0% ≤ substrate protein remaining % ≤ 80%) | B ("B" is defined as 80%< substrate protein remaining %≤ 100%) | B ("B" is defined as 80%< substrate protein remaining %≤ 100%) | A ("A" is defined as 0% ≤ substrate protein remaining % ≤ 80%) |
| O=C1CCN(N2Cc3cc(CN4CCN(c5ccc(C(F)(F)F)cn5)CC4)ccc3C2=O)C(=O)N1 [GT-05176, 1-(1-oxo-5-((4-(5-(trifluoromethyl)pyridin-2-yl)piperazin-1-yl)methyl)isoindolin-2-yl)dihydropyrimidine-2,4(1H,3H)-dione] | B ("B" is defined as 80%< substrate protein remaining %≤ 100%) |  |  | B ("B" is defined as 80%< substrate protein remaining %≤ 100%) | B ("B" is defined as 80%< substrate protein remaining %≤ 100%) |  |
| O=C1CCN(N2C(=O)c3ccc(CN4CCN(c5ccccn5)CC4)cc3C2=O)C(=O)N1 [GT-05351, 2-(2,4-dioxotetrahydropyrimidin-1(2H)-yl)-5-((4-(pyridin-2-yl)piperazin-1-yl)methyl)isoindoline-1,3-dione] | B ("B" is defined as 80%< substrate protein remaining %≤ 100%) | B ("B" is defined as 80%< substrate protein remaining %≤ 100%) |  | B ("B" is defined as 80%< substrate protein remaining %≤ 100%) | A ("A" is defined as 0% ≤ substrate protein remaining % ≤ 80%) |  |
| O=C1CCN(N2C(=O)c3ccc(CN4CCN(c5cccc(Cl)n5)CC4)cc3C2=O)C(=O)N1 [GT-05353, 5-((4-(6-chloropyridin-2-yl)piperazin-1-yl)methyl)-2-(2,4-dioxotetrahydropyrimidin-1(2H)-yl)isoindoline-1,3-dione] | B ("B" is defined as 80%< substrate protein remaining %≤ 100%) | B ("B" is defined as 80%< substrate protein remaining %≤ 100%) | A ("A" is defined as 0% ≤ substrate protein remaining % ≤ 80%) | B ("B" is defined as 80%< substrate protein remaining %≤ 100%) | B ("B" is defined as 80%< substrate protein remaining %≤ 100%) |  |
| O=C1CCN(N2C(=O)c3ccc(CN4CCN(c5cc(Cl)ccn5)CC4)cc3C2=O)C(=O)N1 [GT-05354, 5-((4-(4-chloropyridin-2-yl)piperazin-1-yl)methyl)-2-(2,4-dioxotetrahydropyrimidin-1(2H)-yl)isoindoline-1,3-dione] | B ("B" is defined as 80%< substrate protein remaining %≤ 100%) |  | A ("A" is defined as 0% ≤ substrate protein remaining % ≤ 80%) | B ("B" is defined as 80%< substrate protein remaining %≤ 100%) |  |  |
| O=C1CCN(N2C(=O)c3ccc(CN4CCN(c5ncccc5F)CC4)cc3C2=O)C(=O)N1 [GT-05355, 2-(2,4-dioxotetrahydropyrimidin-1(2H)-yl)-5-((4-(3-fluoropyridin-2-yl)piperazin-1-yl)methyl)isoindoline-1,3-dione] | B ("B" is defined as 80%< substrate protein remaining %≤ 100%) | B ("B" is defined as 80%< substrate protein remaining %≤ 100%) | A ("A" is defined as 0% ≤ substrate protein remaining % ≤ 80%) | B ("B" is defined as 80%< substrate protein remaining %≤ 100%) |  | B ("B" is defined as 80%< substrate protein remaining %≤ 100%) |
| O=C1CCN(N2Cc3cc(CN4CCN(c5ncc(Cl)cc5Cl)CC4)ccc3C2=O)C(=O)N1 [GT-05356, 1-(5-((4-(3,5-dichloropyridin-2-yl)piperazin-1-yl)methyl)-1-oxoisoindolin-2-yl)dihydropyrimidine-2,4(1H,3H)-dione] | B ("B" is defined as 80%< substrate protein remaining %≤ 100%) | B ("B" is defined as 80%< substrate protein remaining %≤ 100%) |  | B ("B" is defined as 80%< substrate protein remaining %≤ 100%) |  |  |
| O=C1CCN(N2Cc3cc(CN4CCN(c5nccc(F)c5F)CC4)ccc3C2=O)C(=O)N1 [GT-05357, 1-(5-((4-(3,4-difluoropyridin-2-yl)piperazin-1-yl)methyl)-1-oxoisoindolin-2-yl)dihydropyrimidine-2,4(1H,3H)-dione] | B ("B" is defined as 80%< substrate protein remaining %≤ 100%) | B ("B" is defined as 80%< substrate protein remaining %≤ 100%) |  | B ("B" is defined as 80%< substrate protein remaining %≤ 100%) | B ("B" is defined as 80%< substrate protein remaining %≤ 100%) |  |
